According to patent US8618043B2, “Use of ADNF polypeptides for treating anxiety and depression” (Ramot at Tel-Aviv University, priority 2003, dated 2013):

Experiments:
[1] = cited from earlier work
ND-Swiss male mice = assay: Morris water maze, chronic intranasal NAP; assay type: in vivo, mouse; details: eight-month-old mice
Procedure: ND-Swiss male mice (8 months old; Harlan Sprague Dawley, Inc., Indianapolis, Ind.) were kept under a 12:12 hour light/dark regimen, with food and water available at all times. The mice were kept in the animal care facility of the Tel Aviv University in compliance with institutional and state guidelines.
NAP was custom synthesized by Peninsula (Bachem, Torrance, Calif., USA) or Peptide Technologies (Bethesda, Md., USA). The peptide was dissolved in a solution DD, in which each milliliter included 7.5 mg NaCl, 1.7 mg citric acid monohydrate, 3 mg disodium phosphate dihydrate and 0.2 mg benzalkonium chloride solution (50%). The peptide was administered intranasally every day, 5 days a week, 0.5 μg in 10 μl for each mouse, half the portion in each nostril. The control group received 10 μl of the inert carrier per day. The mice were treated at least 1 h prior to the daily experiment (water maze).
Mice were also subjected to two daily tests in a Morris water maze (diameter 90 cm; depth, 20 cm), as described in WO 01/092333, incorporated herein by reference. Latency to reach the hidden platform over a 90 second test period was recorded. The experiment was performed for 4-5 consecutive days. […] The platform was then removed from the maze and the time spent by the mice in the pool's quarter where the platform used to be was recorded (for 90 seconds). […]

[2] = in vivo; cited from earlier work
[3] = test system: astrocytes from newborn rat cerebral cortex; assay: Confocal microscopy of microtubule re-organization; assay type: cell-based
Procedure: Rat cerebral cortical cells from newborn pups were prepared as before (Bassan et al., 1999). All procedures performed in these studies were conducted in accordance with the Tel Aviv University regulations and were approved by the Animal Care and Use Committee of Tel Aviv University. The use of animals was not excessive and no animal suffering occurred. In short, cerebral cortical tissue was incubated for 20 minutes at 37° C. in Hanks' balanced salt solution+15 mM HEPES, pH 7.3 containing trypsin B (Biological Industries, Beit Haemek, Israel). Dissociated cerebral cortical cells were added to the culture dish with 5% horse serum in DMEM. Cells were plated in a ratio of 1 cortex per two 75 cm^2 cell culture flasks (polystyrene, Corning, N.Y.). The medium was changed 1 day after plating. For astrocyte cultures, cells were split after 10 incubation days and plated in 24 well plates (each flask into 60 wells containing microscope cover glasses (12 mm diameter) and 250 μl medium). Cells were then incubated two additional weeks. For mixed neuroglial cultures, dissociated cerebral cortical cells were plated on a bed of astrocytes 2 weeks after the split and incubated in neuron-specific medium as before (Bassan et al., 1999; Brenneman, & Gozes, J. Clin. Invest. 97:2299-2307 (1996); based on Forsythe & Westbrook, J. Physiol. 396:515-533 (1988)). […]

Bovine MAP-rich tubulin = assay: Microtubule assembly, absorbance at 350 nm; assay type: biochemical; details: negative control peptide, concentration not given
Procedure: A microtubule assembly kit CytoDYNAMIX Screen 01(CDS01) was obtained from Cytoskeleton (Denver, Colo.). Bovine MAP-rich tubulin (HTS01) was resuspended in G-PEM buffer (80 mM PIPES pH 6.9, 1 mM MgCl, 1 mM EGTA and 1 mM GTP) and subjected to polymerization at 37° C. The reaction was performed in 96-well plate. Assembly was monitored with a spectrophotometer SPECTRAmax 190 (Molecular Devices, Sunnyvale, Calif.) employing continuous recording at 350 nm.

Compound: CC[C@H](C)[C@H](NC(=O)[C@H](CO)NC(=O)[C@@H](NC(=O)[C@@H]1CCCN1C(=O)[C@H](C)NC(=O)[C@@H](N)CC(N)=O)C(C)C)C(=O)N1CCC[C@H]1C(=O)N[C@@H](CCC(N)=O)C(=O)O [NAP]
- brain penetration ([1]; following intranasal administration): brain penetration
- crossing of the blood-brain barrier ([1]; radiolabeled peptides, intranasal, intravenous or intraperitoneal administration): can cross the blood-brain barrier
- time to reach the visible platform (motor behavior) (ND-Swiss male mice): 24+7.6
- adverse side effects in toxicology studies [2]: no adverse side effects

Compound: VLGGGSALL [C2]
- microtubule re-organization / microtubule-associated morphological change [3]: did not induce
- effect on microtubule assembly (Bovine MAP-rich tubulin): did not affect
